Several values for one entry are separate records, joined by “and”; a condition that tells them apart may be missing. Equal values may be shown once.
Assay: rat acute oral toxicity
Details: in vivo
Text: […]The data set underlying the modeling effort for this project was initially compiled by NICEATM and U.S. EPA’s CCTE. Briefly, LD50 data were collected from rat acute oral systemic toxicity tests, including limit tests, ranges/confidence intervals, and discrete LD50 values. The full data set included 21,200 LD50 entries for 15,688 substances. […] Data were reviewed to ensure that LD50 values with obvious errors in the extracted data such as unit conversion errors (e.g., comma and decimal separator misplacements) were either fixed or removed. After this review, 16,209 LD50 values remained. Many of the chemicals represented had multiple LD50 entries, requiring that a single representative value per Chemical Abstracts Service Registry Number (CASRN) identifier be defined to facilitate modeling efforts. Based on ATWG feedback and to define the representative LD50 as a protective value while accounting for the distribution across multiple LD50s, the median of the lowest quartile was computed using only discrete LD50 values (omitting limit test data and range and confidence interval data). A detailed summary of the data compilation is available online on the NICEATM webpage dedicated to the collaborative modeling project (NTP 2020).
[…][…] For categorical designations, limit test and range/confidence interval LD50 data were integrated wherever possible. As such, the number of chemicals with end point values/calls varies across the modeling end points (Table 3) based on whether chemicals had representative LD50 values and/or other data. If a chemical had both, the representative value was used to determine categorical calls rather than limit test data. Some data were useable only for certain end points and categories depending on the thresholds. For example, ranges that spanned multiple hazard categories were considered only for the binary (very toxic/nontoxic) end points and omitted from rendering a determination for hazard category assignment.
[…]The final data set comprising 11,992 chemicals was split into training and evaluation sets […], respectively. This process was performed semirandomly by ordering chemicals based on the five end points (categorical and continuous LD50 values) and partitioning every fourth record into the evaluation set accordingly. This approach was taken to ensure an equivalent distribution of the LD50 values and the different hazard categories between the training and the evaluation sets without supervised sampling of the chemicals based on structures (Figure 1A). The sources of the chemical structures were also kept equivalent between the two sets, with chemical structures obtained from DSSTox, being the highest quality, representing over 75% of each set (Figure 1B).

Row | SMILES | LD50
1 | CCC[N+](C)(C)CC[N+](C)(C)CCO | 1850 mg/kg
2 | CCN(CC)CCNC(=O)c1ccc(N)cc1 | 1510 mg/kg
3 | CCC(=O)O[C@](Cc1ccccc1)(c1ccccc1)[C@H](C)CN(C)C | 135 mg/kg
4 | C=CCOC(=O)C(=C)C | 70 mg/kg
5 | COC(C)(C)CCCC(C)C/C=C/C(C)=C/C(=O)OC(C)C (centres undefined) | 2320 mg/kg
6 | CN(C)C(=O)Nc1ccc(Oc2ccc(Cl)cc2)cc1 | 3000 mg/kg
7 | CN=C(O)Oc1cccc(C)c1 | 268 mg/kg
8 | CCOP(=O)(OCC)OP(=O)(OCC)OCC | 0.5 mg/kg
9 | CCCOC(C)=O | 9370 mg/kg
10 | c1ccc2[nH]c(-c3cscn3)nc2c1 | 2080 mg/kg
11 | O=c1n(CC2CO2)c(=O)n(CC2CO2)c(=O)n1CC1CO1 (centres undefined) | 222 mg/kg
12 | CC(C)C(=O)O | 266 mg/kg
13 | OCCN1CN(CCO)CN(CCO)C1 | 763 mg/kg
14 | CCN(CC)C(=S)S | 1500 mg/kg
15 | CNC(=S)NN | 14 mg/kg
16 | CCCCCCCCCCCCN(C)C | 740 mg/kg
17 | NC(=O)CF | 5.75 mg/kg
18 | O=C=Nc1ccc(Cl)c(Cl)c1 | 91 mg/kg
19 | CC1(C)C(C=C(Cl)Cl)C1C(=O)OCc1cccc(Oc2ccccc2)c1 (centres undefined) | 406 mg/kg
20 | CC1(C)C(C=C(Cl)Cl)C1C(=O)OC(C#N)c1ccc(F)c(Oc2ccccc2)c1 (centres undefined) | 270 mg/kg
21 | Nc1ccccc1[N+](=O)[O-] | 1600 mg/kg
22 | CC(C)OC(=O)Nc1ccccc1 | 1000 mg/kg
23 | CC(=O)Oc1ccccc1C(=O)O | 1280 mg/kg
24 | C=CCCl | 284 mg/kg
25 | Cc1ccccc1Cc1ccccc1 | 3020 mg/kg

Row | SMILES | LD50
26 | N[C@@H](Cc1ccc(N(CCCl)CCCl)cc1)C(=O)O | 11.2 mg/kg
27 | Cc1ccc(N)c(C)c1 | 467 mg/kg
28 | COP(=S)(OC)Oc1ccc([N+](=O)[O-])c(C)c1 | 250 mg/kg
29 | CC(C)COC(=O)c1ccccc1C(=O)OCC(C)C | 10400 mg/kg
30 | C[n+]1ccc(-c2cc[n+](C)cc2)cc1 | 97.5 mg/kg and 106 mg/kg
31 | O=C1c2ccccc2C(=O)C1C(=O)C(c1ccccc1)c1ccc(Cl)cc1 (centres undefined) | 2.1 mg/kg
32 | CO[Si](C)(OC)C1CCCCC1 | 2760 mg/kg
33 | CC(=O)CC(c1ccccc1)c1c(O)c2ccccc2oc1=O (centres undefined) | 1.6 mg/kg
34 | CCN(CC)CCCN | 410 mg/kg
35 | O=C(NCc1cccnc1)Nc1ccc([N+](=O)[O-])cc1 | 4.75 mg/kg
36 | CC(C)(C)c1ccc(CSc2cnn(C(C)(C)C)c(=O)c2Cl)cc1 | 570 mg/kg
37 | O=Cc1ccco1 | 100 mg/kg
38 | O=[N+]([O-])c1ccc(O)c([N+](=O)[O-])c1 | 30 mg/kg
39 | CC(=O)C(C)=O | 1580 mg/kg
40 | OC(O)C(Cl)(Cl)Cl | 479 mg/kg
41 | CCCCCCCC(=O)OC | 10100 mg/kg
42 | CCCCN(C)C | 184 mg/kg
43 | O=[N+]([O-])OCC(CO[N+](=O)[O-])O[N+](=O)[O-] | 105 mg/kg
44 | COC(=O)/C=C\C(=O)OC | 1410 mg/kg
45 | CCCCOC(=O)CO | 4240 mg/kg
46 | CCCC(=O)O | 1630 mg/kg
47 | CC(C)c1ccc(-c2ccccc2)cc1 | 4570 mg/kg
48 | C=Cc1cc(Br)ccc1Br | 5790 mg/kg
49 | COP(=S)(Oc1cc(Cl)c(Br)cc1Cl)c1ccccc1 (centres undefined) | 19 mg/kg
50 | N#CCC#N | 14 mg/kg

Row | SMILES | LD50
51 | O=[N+]([O-])c1ccc(O)cc1 | 170 mg/kg
52 | CCOP(=O)(NC(C)C)Oc1ccc(SC)c(C)c1 (centres undefined) | 2.7 mg/kg
53 | CCOc1ccc(NC(N)=O)cc1 | 1900 mg/kg
54 | OCCNc1ccccc1 | 2230 mg/kg
55 | CCCC1COC(Cn2cncn2)(c2ccc(Cl)cc2Cl)O1 (centres undefined) | 1500 mg/kg
56 | O=P(OCC(Br)CBr)(OCC(Br)CBr)OCC(Br)CBr (centres undefined) | 810 mg/kg
57 | CCO[Si](CCCN)(OCC)OCC | 1570 mg/kg
58 | CC(C)N(C(=O)CCl)c1ccccc1 | 710 mg/kg
59 | CCc1cccc(C)c1N(C(=O)CCl)C(C)COC (centres undefined) | 2200 mg/kg
60 | Cc1cc(Cl)ccc1OCC(=O)O | 700 mg/kg
61 | CCCCC=O | 4580 mg/kg
62 | CCCOP(=O)(OCCC)Oc1ccc(SC)cc1 | 61 mg/kg
63 | CCCCOP(=O)(OCCCC)Oc1ccccc1 | 2140 mg/kg
64 | Cc1ccc2nc(-c3ccc(N)cc3)sc2c1 | 5650 mg/kg
65 | NC(=O)c1cccnc1 | 3500 mg/kg
66 | Cc1ccc(N)cc1Cl | 302 mg/kg
67 | O=C(O)C1(C(=O)Nc2ccc(Cl)cc2Cl)CC1 | 208 mg/kg
68 | OC1CCCCC1 | 1400 mg/kg
69 | CC(C)CC(C)O (centres undefined) | 2590 mg/kg
70 | CCc1cccc(CC)c1N | 1800 mg/kg
71 | CC(C)c1ccc2ccc(C(C)C)cc2c1 | 4130 mg/kg
72 | Oc1ccccc1O | 260 mg/kg
73 | CCCCCCCCOC(=O)c1ccccc1C(=O)OCCCCCCCC | 47000 mg/kg
74 | C=C(C)C(=O)OCc1ccccc1 | 3980 mg/kg
75 | O=C1OC(=O)c2cccc3cccc1c23 | 9600 mg/kg

Row | SMILES | LD50
76 | O=C(O)c1ccccc1C(=O)Nc1cccc2ccccc12 | 1770 mg/kg
77 | CCCCOC(=O)CCCCCCCCC(=O)OCCCC | 14900 mg/kg
78 | Nc1cccc([N+](=O)[O-])c1 | 535 mg/kg
79 | CC(=O)c1ccccc1 | 858 mg/kg
80 | ClC(Cl)=C(Cl)C(Cl)=C(Cl)Cl | 82 mg/kg
81 | CCNc1nc(Cl)nc(NC(C)C)n1 | 1870 mg/kg
82 | Clc1cccc(Cl)c1N=C1NCCN1 | 67.3 mg/kg
83 | COC(=O)CCS | 182 mg/kg
84 | CC(C)(C)NCCOCCO | 1400 mg/kg
85 | C=CC(C)(CCC=C(C)C)OC(C)=O (centres undefined) | 13900 mg/kg
86 | CC(C)(C)CC(C)(C)c1ccc(O)cc1 | 4040 mg/kg
87 | CC(C)(C)OOC1(OOC(C)(C)C)CCCCC1 | 13300 mg/kg
88 | S=C=S | 1200 mg/kg
89 | CC[Si](Cl)(Cl)Cl | 800 mg/kg
90 | CC(C)(C)N | 44 mg/kg
91 | CCOC(=O)C1(c2ccccc2)CCN(C)CC1 | 162 mg/kg
92 | CCCCCCCC[Si](OCC)(OCC)OCC | 11500 mg/kg
93 | CC(Cc1ccc(C(C)(C)C)cc1)CN1CC(C)OC(C)C1 (centres undefined) | 1670 mg/kg
94 | Nc1ccccc1N | 510 mg/kg
95 | CC(CCl)OP(=O)(OC(C)CCl)OC(C)CCl (centres undefined) | 980 mg/kg
96 | NCCO | 1720 mg/kg
97 | c1ccc(-c2ccccn2)nc1 | 100 mg/kg
98 | CC(C)(C)C(=O)O | 900 mg/kg
99 | CCCCCCCCCCCCCCCC[N+](C)(C)C | 450 mg/kg
100 | Cc1cccc(N)c1C | 930 mg/kg

Row | SMILES | LD50
101 | Oc1cc(Cl)ccc1Cl | 580 mg/kg
102 | CC(C)OC(=O)Cl | 468 mg/kg
103 | CCCCN(CCCC)SN(C)C(=O)Oc1cccc2c1OC(C)(C)C2 | 51 mg/kg
104 | CC(CC=O)CC(C)(C)C (centres undefined) | 3240 mg/kg
105 | Nc1nc[nH]n1 | 1100 mg/kg
106 | CS(C)=O | 14500 mg/kg
107 | O=[N+]([O-])c1ccc(Cl)c([N+](=O)[O-])c1 | 640 mg/kg
108 | CCCCC(CC)CO (centres undefined) | 2050 mg/kg
109 | O=c1sc2ccccc2c(O)c1C1CC(c2ccc(-c3ccc(Br)cc3)cc2)Cc2ccccc21 (centres undefined) | 0.55 mg/kg
110 | Cc1ccc(O)c(C)c1 | 2300 mg/kg
111 | CCC(C)C=O (centres undefined) | 6400 mg/kg
112 | Cc1ccccc1O | 121 mg/kg
113 | CC=C1CC2C=CC1C2 (centres undefined) | 2280 mg/kg
114 | CC(=O)OC(C)(C)C | 4100 mg/kg
115 | OCCc1ccccn1 | 3840 mg/kg
116 | O=S(=O)(O)c1ccc(Nc2nc(Nc3ccc(/C=C/c4ccc(Nc5nc(Nc6ccc(S(=O)(=O)O)cc6)nc(N(CCO)CCO)n5)cc4S(=O)(=O)O)c(S(=O)(=O)O)c3)nc(N(CCO)CCO)n2)cc1 | 5300 mg/kg
117 | Oc1ccc(Cl)cc1Cl | 47 mg/kg
118 | CCC(C)Nc1c([N+](=O)[O-])cc(C(C)(C)C)cc1[N+](=O)[O-] (centres undefined) | 1050 mg/kg
119 | CC1=CCC(O)(C(C)C)CC1 (centres undefined) | 1300 mg/kg
120 | CCOC(=O)CC(SP(=S)(OC)OC)C(=O)OCC (centres undefined) | 1190 mg/kg
121 | c1ccc2ncccc2c1 | 331 mg/kg
122 | ClCC(Cl)Cl | 836 mg/kg
123 | CCCCOCCOCCOC(C)=O | 6500 mg/kg
124 | CCCCC(C#N)(Cn1cncn1)c1ccc(Cl)cc1 (centres undefined) | 1600 mg/kg

Reference: the CATMoS acute toxicity set (Mansouri et al. 2021)
